Measurements published in US8859581B2, “Azaheterocyclic compounds as kinase inhibitors” (Merck Patent GmbH, priority 2005, dated 2014).
Counter-ions that a name gives are not always drawn.

biological target: T1, IGF1R (Homo sapiens, UniProt P08069); assay: Inhibition of IGF-1R (IC50): IGF1-stimulated IGF1R autophosphorylation in human tumour cells, Capture-ELISA or LUMINEX; assay type: cell-based; conditions: human tumour cells expressing IGF1R (for example MCF-7 or Calu-6); 45 min pre-treatment, IGF1 stimulation 5 min; read-out: IC50 (μM), IGF1R
T1 construct: endogenous in cells
T1 sequence (P08069 31-1367): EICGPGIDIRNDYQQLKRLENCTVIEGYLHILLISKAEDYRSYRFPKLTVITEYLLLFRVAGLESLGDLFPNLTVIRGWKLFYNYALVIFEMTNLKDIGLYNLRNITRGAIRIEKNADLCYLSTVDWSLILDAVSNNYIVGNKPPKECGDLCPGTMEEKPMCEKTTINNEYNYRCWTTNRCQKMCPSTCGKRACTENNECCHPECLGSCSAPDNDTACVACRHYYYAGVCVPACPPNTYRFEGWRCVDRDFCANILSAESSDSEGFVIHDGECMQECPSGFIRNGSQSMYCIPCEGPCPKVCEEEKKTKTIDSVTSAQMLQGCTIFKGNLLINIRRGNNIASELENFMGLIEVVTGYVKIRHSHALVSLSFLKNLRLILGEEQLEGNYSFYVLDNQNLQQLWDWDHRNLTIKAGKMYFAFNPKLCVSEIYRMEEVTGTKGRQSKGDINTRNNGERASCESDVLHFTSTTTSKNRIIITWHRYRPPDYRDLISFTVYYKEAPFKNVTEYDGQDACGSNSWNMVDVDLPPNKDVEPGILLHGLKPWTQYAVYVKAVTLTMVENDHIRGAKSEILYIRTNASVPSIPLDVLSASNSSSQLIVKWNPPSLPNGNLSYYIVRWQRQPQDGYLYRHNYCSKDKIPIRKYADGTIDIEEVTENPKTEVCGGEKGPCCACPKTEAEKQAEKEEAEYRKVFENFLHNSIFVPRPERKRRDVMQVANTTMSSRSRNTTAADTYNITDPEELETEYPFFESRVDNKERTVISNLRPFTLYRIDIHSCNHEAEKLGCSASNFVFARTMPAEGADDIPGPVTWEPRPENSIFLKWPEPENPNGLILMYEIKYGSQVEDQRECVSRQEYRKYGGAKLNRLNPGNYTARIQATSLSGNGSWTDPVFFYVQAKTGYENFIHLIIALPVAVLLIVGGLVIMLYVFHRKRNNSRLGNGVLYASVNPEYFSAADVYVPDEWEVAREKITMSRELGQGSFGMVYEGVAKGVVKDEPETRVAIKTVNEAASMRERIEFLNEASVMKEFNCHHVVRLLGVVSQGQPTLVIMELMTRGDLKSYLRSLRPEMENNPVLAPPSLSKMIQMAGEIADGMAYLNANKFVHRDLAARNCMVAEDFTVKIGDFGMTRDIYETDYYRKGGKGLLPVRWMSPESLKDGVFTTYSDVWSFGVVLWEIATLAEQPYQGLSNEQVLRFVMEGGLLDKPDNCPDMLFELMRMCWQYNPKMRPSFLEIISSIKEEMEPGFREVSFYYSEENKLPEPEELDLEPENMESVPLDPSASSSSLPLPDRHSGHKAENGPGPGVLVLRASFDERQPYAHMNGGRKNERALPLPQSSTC
Protocol: Cultivated human tumour cells which express the IGF1 receptor (IGF1R) (for example MCF-7 or Calu-6) are stimulated using human IGF1, the natural ligand of IGF1R. The stimulation induces autophosphorylation of tyrosine residues in the cytoplasmatic IGF1R domain, which triggers signal transduction cascades, which result in apoptosis inhibition and cell proliferation.
The amount of phosphorylated IGF1R is determined by a receptor-specific Capture-ELISA or an analogous LUMINEX assay. The IGF1R from cell lysates is bound to a 96-well ELISA plate or LUMINEX beads (“capturing”) by means of a specific antibody, and the tyrosine phosphorylation is detected using a biotin-labelled anti-phosphotyrosine antibody and a streptavidin peroxidase conjugate by a chemoluminescence method or by means of a fluorescence-labelled anti-phosphotyrosine antibody, In order to determine the activity of kinase inhibitors, cells are pre-treated with increasing concentrations of these compounds for 45 min and subsequently stimulated using IGF1 for 5 min. As internal control, the biological activity of the ligand IGF1 is checked and a concentration series of an IGF1R reference inhibitor measured.

IC50	Compound
0.76 µM	COc1cc(-c2cc3c(Nc4cccnc4)ccnc3[nH]2)cc(OC)c1OC [Compound 2]
0.99 µM	COc1ccc(Nc2ccnc3[nH]c(-c4cc(OC)c(OC)c(OC)c4)cc23)cc1N1CCN(C)CC1 [Compound 3]
0.76 µM	COc1cc(-c2cc3c(Nc4cnccn4)ccnc3[nH]2)cc(OC)c1OC [Compound 7]
0.93 µM	COc1cc(-c2cc3c(NCc4cccnc4)ccnc3[nH]2)cc(OC)c1OC [Compound 8]
1.2 µM	COc1cc(-c2cc3c(NCCc4cccnc4)ccnc3[nH]2)cc(OC)c1OC [Compound 9]
1.4 µM	COc1cc(-c2cc3c(NCCc4ccccn4)ccnc3[nH]2)cc(OC)c1OC [Compound 10]
1.6 µM	COc1cc(-c2cc3c(Nc4cccc(C#N)c4)ccnc3[nH]2)cc(OC)c1OC [Compound 11]
10 µM	COc1cccc(-c2cc3c(NCc4ccccc4)ccnc3[nH]2)c1 [Compound 14]
11 µM	COc1ccc(CNc2ccnc3[nH]c(-c4ccc(OC)cc4)cc23)cc1 [Compound 16]
9.9 µM	C#CCCCCNc1ccnc2[nH]c(-c3ccc(OC)cc3)cc12 [Compound 20]

same assay, conditions: human tumour cells expressing IGF1R (for example MCF-7 or Calu-6); 45 min pre-treatment, IGF1 stimulation 5 min; read-out: concentration at which the substance inhibits the kinase IGF-1R to the extent of 50%

IC50	Compound
14 µM	COc1cc(-c2cc3c(Nc4cnc5ccccc5c4)ccnc3[nH]2)cc(OC)c1OC [Compound 1, quinolin-3-yl-[2-(3,4,5-trimethoxyphenyl)-1H-pyrrolo[2,3b]pyridin-4-yl]amine]

system: not given; assay: not given; conditions: not given

melting point	Compound
137 °C	COc1cccc(-c2c([Si](C)(C)C)[nH]c3ccnc(Cl)c23)c1
179 to 179.5 °C	COc1cccc(-c2c([Si](C)(C)C)[nH]c3cc(Cl)ncc23)c1
166 to 167.5 °C	c1ccc(CCCOc2cccc(-c3cc4c(Nc5cccnc5)ccnc4[nH]3)c2)cc1 (as salt: HCl) [Compound 22]
210 to 211.5 °C	Fc1cccc(Nc2ccnc3[nH]c(-c4cccc(OCCCc5ccccc5)c4)cc23)c1 (as salt: HCl) [Compound 24]
175 to 176 °C	c1ccc(CCCOc2cccc(-c3cc4c(Nc5ccccn5)ccnc4[nH]3)c2)cc1 (as salt: HCl) [Compound 25]
155 to 156 °C	Fc1ccccc1Nc1ccnc2[nH]c(-c3cccc(OCCCc4ccccc4)c3)cc12 (as salt: HCl) [Compound 26]
226 to 227 °C	COc1ccc(CNc2nccc3[nH]cc(-c4cccc(OC)c4)c23)cc1 (as salt: HCl) [Compound 42]
183 to 184 °C	COc1cccc(-c2c([Si](C)(C)C)n(CCCCN3C(=O)c4ccccc4C3=O)c3ccnc(Cl)c23)c1 (as salt: TFA)
142 to 144 °C	COc1ccc(-c2cc3c(N(C(=O)c4ccc(F)c(Cl)c4)C(=O)c4ccc(F)c(Cl)c4)ccnc3[nH]2)cc1 (as salt: TFA) [Compound 33]
141 to 142 °C	COc1ccc(-c2cc3c(NC(=O)Nc4ccc(Cl)c(C(F)(F)F)c4)ccnc3[nH]2)cc1 (as salt: TFA) [Compound 34]
189.5 to 190 °C	C=CCNc1ccnc2[nH]c(-c3ccc(OC)cc3)cc12 (as salt: TFA) [Compound 35]
127 to 127.5 °C	COc1ccc(CNc2ccn(CCCCN)c3nc(-c4ccc(OC)cc4)cc2-3)cc1 (as salt: TFA) [Compound 36]
50 °C	COc1cccc(-c2cn(CCCCN)c3ccnc(N)c23)c1 (as salt: TFA) [Compound 47]
130 to 131 °C	COc1ccc(CNc2nccc3[nH]c(-c4cccc(OCc5ccccc5)c4)cc23)cc1 (as salt: TFA) [Compound 48]
129 to 130 °C	COc1cccc(-c2cn(CCCN3C(=O)c4ccccc4C3=O)c3ccnc(Cl)c23)c1 (as salt: TFA) [Compound 49]
130 °C (dec.)	COc1cccc(-c2cn(CCN3C(=O)c4ccccc4C3=O)c3ccnc(Cl)c23)c1 (as salt: TFA) [Compound 51]
188 to 189 °C	COc1cccc(-c2cn(CCCCN3C(=O)c4ccccc4C3=O)c3ccnc(N)c23)c1 (as salt: TFA) [Compound 55]
202 to 203 °C	COc1cc(-c2cc3c(Nc4cccnc4)ccnc3[nH]2)cc(OC)c1OC (as salt: hydrochloride) (hydrate or solvate) [Compound 2]
78 to 80 °C	COc1ccc(Nc2ccnc3[nH]c(-c4cc(OC)c(OC)c(OC)c4)cc23)cc1N1CCN(C)CC1 (as salt: hydrochloride) (hydrate or solvate) [Compound 3]
292 to 294 °C	COc1cc(-c2cc3c(Nc4cnccn4)ccnc3[nH]2)cc(OC)c1OC (as salt: hydrochloride) (hydrate or solvate) [Compound 7]
181.5 to 183 °C	COc1cc(-c2cc3c(NCc4cccnc4)ccnc3[nH]2)cc(OC)c1OC (as salt: hydrochloride) (hydrate or solvate) [Compound 8]
105.5 to 106.5 °C	COc1cc(-c2cc3c(NCCc4cccnc4)ccnc3[nH]2)cc(OC)c1OC (as salt: hydrochloride) (hydrate or solvate) [Compound 9]
153 to 154 °C	COc1cc(-c2cc3c(NCCc4ccccn4)ccnc3[nH]2)cc(OC)c1OC (as salt: hydrochloride) (hydrate or solvate) [Compound 10]
291 to 292.5 °C	COc1cc(-c2cc3c(Nc4cccc(C#N)c4)ccnc3[nH]2)cc(OC)c1OC (as salt: hydrochloride) (hydrate or solvate) [Compound 11]
257 to 258 °C	COc1cccc(-c2cc3c(NCCCN(C)C)ccnc3[nH]2)c1 (as salt: hydrochloride) (hydrate or solvate) [Compound 15]

melting point	Compound
118 to 120 °C	C#CCCCCNc1ccnc2[nH]c(-c3ccc(OC)cc3)cc12 (as salt: hydrochloride) (hydrate or solvate) [Compound 20]
227 to 228.5 °C	COc1cc(-c2cc3c(Nc4cnc5ccccc5c4)ccnc3[nH]2)cc(OC)c1OC (as salt: hydrochloride) [Compound 1, quinolin-3-yl-[2-(3,4,5-trimethoxyphenyl)-1H-pyrrolo[2,3b]pyridin-4-yl]amine]
267.5 to 269 °C	COc1cc(-c2cc3c(Nc4ccc(F)c(Cl)c4)ccnc3[nH]2)cc(OC)c1OC (as salt: hydrochloride) [Compound 5]
164 to 165 °C	COc1cccc(-c2cc3c(Nc4ccc(F)c(Cl)c4)ccnc3[nH]2)c1 (as salt: hydrochloride) [Compound 6]
161 to 162 °C	COc1cccc(-c2cc3c(NCCCn4ccnc4)ccnc3[nH]2)c1 (as salt: hydrochloride) [Compound 12]
117 to 119 °C	COc1cccc(-c2cc3c(NCc4ccccc4)ccnc3[nH]2)c1 (as salt: hydrochloride) [Compound 14]
196 to 197 °C	COc1ccc(CNc2ccnc3[nH]c(-c4ccc(OC)cc4)cc23)cc1 (as salt: hydrochloride) [Compound 16]
218 to 219 °C	COc1cccc(-c2cc3c(NCCn4cccc4)ccnc3[nH]2)c1 (as salt: hydrochloride) [Compound 17]
164 to 165 °C	COc1ccc(CNc2ccnc3[nH]c(-c4cccc(OCCCc5ccccc5)c4)cc23)cc1 [Compound 23]
128 to 129 °C	c1ccc(CCCOc2cccc(-c3cc4cccnc4[nH]3)c2)cc1 [Compound 30]
218 to 219 °C	COc1ccc(CNc2ccnc3[nH]c(-c4cccc(OCc5ccccc5)c4)cc23)cc1 [Compound 32]
159.5 to 160 °C	COc1cccc(-c2c[nH]c3ccnc(Cl)c23)c1 [Compound 46]
122 to 124 °C	COc1cccc(-c2cn(CCCNC(=O)c3ccccc3C(=O)O)c3ccnc(Cl)c23)c1 [Compound 50]
> 299 °C	COc1cccc(-c2c[nH]c3ccnc(Nc4ccccn4)c23)c1 [Compound 53]
156 to 158 °C	Clc1nccc2[nH]cc(-c3cccc(OCc4ccccc4)c3)c12 [Compound 56]
80 °C (dec.)	COc1cccc(-c2c[nH]c3ccnc(NCc4cccnc4)c23)c1 [Compound 62]
177 to 178 °C	COc1cccc(-c2c[nH]c3ccnc(Nc4cccnc4)c23)c1 [Compound 63]
168 to 170 °C	c1ccc(COc2cccc(-c3cc4cnccc4[nH]3)c2)cc1 [Compound 70]
205 to 207 °C	COc1ccc(-c2cc3cnccc3[nH]2)cc1 [Compound 75]
211 to 212 °C	COc1cccc(-c2c[nH]c3cc(Cl)ncc23)c1 [Compound 77]
160 °C (dec.)	COc1cccc(-c2cn(CCNC(=O)c3ccccc3C(=O)O)c3cc(Cl)ncc23)c1 [Compound 78]
100 to 101 °C	COc1cccc(-c2cn(CCCNC(=O)c3ccccc3C(=O)O)c3cc(Cl)ncc23)c1 [Compound 79]
177 to 180 °C	COc1cccc(-c2cn(C3CC(CNC(=O)c4ccccc4C(=O)O)C3)c3cc(Cl)ncc23)c1 (stereo not shown) [Compound 80]
97 to 99 °C	COc1cccc(-c2cn(CCCCCNC(=O)c3ccccc3C(=O)O)c3cc(Cl)ncc23)c1 [Compound 82]
225 to 228.5 °C	Clc1cc2[nH]cc(-c3cccc(OCc4ccccc4)c3)c2cn1 [Compound 83]
